Experimental findings from US8580790B2, “(Heterocycle/condensed piperidine)-(piperazinyl)-1-alkanone or (heterocycle/condensed pyrrolidine)-(piperazinyl)-1-alkanone derivatives and use thereof as p75 inhibitors” (Sanofi, priority 2009, dated 2013) are described below.

One may read the IC50 as the midpoint of a concentration-inhibition curve. A word on the melting point: it is the temperature, or range, at which the solid turns liquid.

The target of one data set is T1, human p75^NTR receptor (Homo sapiens, UniProt P08138).
T1 construct: the whole form of the human p75^NTR receptor; expressed in transfected cells; the soluble AP fusion comes from the supernatant of transiently transfected HEK293 cells
T1 sequence (P08138 29-427): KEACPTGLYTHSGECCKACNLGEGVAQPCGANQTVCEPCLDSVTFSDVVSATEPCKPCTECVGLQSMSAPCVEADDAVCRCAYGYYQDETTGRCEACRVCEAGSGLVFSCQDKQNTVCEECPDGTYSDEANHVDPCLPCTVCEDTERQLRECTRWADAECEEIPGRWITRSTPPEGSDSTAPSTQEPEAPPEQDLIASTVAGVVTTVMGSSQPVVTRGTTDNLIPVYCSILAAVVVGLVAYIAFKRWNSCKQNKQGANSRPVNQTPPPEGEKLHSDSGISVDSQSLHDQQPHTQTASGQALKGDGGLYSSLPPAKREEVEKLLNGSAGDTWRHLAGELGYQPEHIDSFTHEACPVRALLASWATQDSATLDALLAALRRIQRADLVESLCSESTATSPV
Nature of the data set: Dimerization of the p75NTR receptor independently of its ligand (soluble p75NTR-alkaline phosphatase binding to SK-N-BE Bep 75 cells). The class given is cell-based. Particulars: soluble p75NTR-alkaline phosphatase 10 nM, 1 h preincubation at 37° C. Here is the method:
(§1) The SK-N-BE parent strain (human neuroblastoma) and the Bep 75 clone, stably expressing the whole form of the human p75^NTR receptor (SK-N-BE Bep 75) are cultured conventionally in an RPMI culture medium containing FCS (5%), sodium pyruvate (1 mM) and glutamine (4 mM). For the SK-N-BE Bep 75 cells, hygromycin ([…] of medium) is added as selection agent.
Study of the dimerization of the p75^NTR receptor independently of its ligand.
The p75^NTR receptor dimerization study is carried out on a cell suspension of the SK-N-BE Bep 75 strain. The cells (2.5×10^4 cells/well) are placed in wells (96-well plate) for 24 h, and then preincubated for 1 h at 37° C. in the presence or absence of the compounds according to the invention. Supernatant is then added, this supernatant being derived from the culture of HEK293 human cells of renal origin expressing, after 48 h of transfection, and secreting a soluble form of the p75^NTR receptor (extracellular part of the receptor) coupled to an alkaline phosphatase, at the final concentration of 10 nM. The quantification of the specific binding of the soluble p75^NTR receptor to the receptor present on SK-N-BE Bep 75 cells is determined by measuring the alkaline phosphatase enzyme activity after incubation of the cells for 1 hour at 37° C. in the presence of the supernatant. After filtration and transfer of the filters into 24-well plates, the alkaline phosphatase activity is determined by adding CDP-Star chemiluminescent substrate (ready-to-use, Roche). The concentrations inhibiting 50% (Cl50) of the dimerization of the p75^NTR receptor, of the compounds according to the invention, are low and range from 10^−6 to 10^−11M.

The subject of data set [1] is human neuroblastoma strains SH-SY-5Y and SK-N-BE Bep 75. As to the kind of experiment: Measurement of NGF-induced apoptosis (cell death detection ELISA). The class given is cell-based. Particulars: SH-SY5Y, NGF 10 ng/ml, 48 h (SH-SY-5Y) or 24 h (SK-N-BE Bep 75), read-out: IC50 of inhibitory activity on NGF-induced apoptosis. Here is the method: The SH-SY-5Y strain (human neuroblastoma) is cultured conventionally in a DMEM culture medium (Dulbecco's Modified Eagle's Medium) (Gibco BRL, France) containing FCS (5%) (foetal calf serum) (Boehringer Mannheim, Germany), sodium pyruvate (1 mM) and glutamine (4 mM) in culture flasks coated with collagen (Becton Dickinson, France).
as §1
The cells (human neuroblastoma strains SH-SY-5Y and SK-N-BE Bep 75) are placed in 35 mm diameter Petri dishes (Biocoat collagen I, (10^5 cells/well)) in an appropriate culture medium containing 5% of FCS, for 24 h. […] The degrees of apoptosis are measured 48 hours after the treatments in the case of the SH-SY-5Y strain, and 24 hours after in the case of the SK-N-BE Bep 75 strain, by quantification of the DNA fragment-associated cytoplasmic histones (cell death detection ELISA, Boehringer Mannheim, Germany). The degrees of apoptosis are expressed as amount of oligonucleosomes/10^5 cells. […]
For orientation: In an ELISA, binding on a coated surface is turned into a signal by an enzyme label.

Counter-ions that a name gives are not always drawn.

`C[C@@H]1CN(c2ccc(C(F)(F)F)cn2)C[C@H](C)N1CC(=O)N1CCc2nc(-c3ccccc3)sc2C1` [compound 9, 2-[(2S,6R)-2,6-dimethyl-4-(5-trifluoromethylpyridin-2-yl)piperazin-1-yl]-1-(2-phenyl-6,7-dihydro-4H-thiazolo[5,4-c]pyridin-5-yl)ethanone]: the figures for the IC50 (on human p75^NTR receptor; in data set [1]) were 0.73 nM and 0.72 nM, respectively.
Turning to `COC(=O)c1ccc(N2C3CCC2CN(CC(=O)N2CCc4nn(-c5ccccc5)cc4C2)C3)nc1` [compound 19, 6-{3-[2-oxo-2-(2-phenyl-2,4,6,7-tetrahydropyrazolo[4,3-c]pyridin-5-yl)ethyl]-3,8-diazabicyclo[3.2.1]oct-8-yl}nicotinic acid methyl ester], the melting point was 204 to 205 °C. Besides, the IC50 on human p75^NTR receptor worked out at 14 nM.
In the case of `O=C(O)c1ccc(N2C3CCC2CN(CC(=O)N2CCc4nn(-c5ccccc5)cc4C2)C3)nc1` [compound 24, 6-{3-[2-oxo-2-(2-phenyl-2,4,6,7-tetrahydropyrazolo[4,3-c]pyridin-5-yl)ethyl]-3,8-diazabicyclo[3.2.1]oct-8-yl}nicotinic acid], the melting point lay within 202 to 206 °C. Besides, the IC50 on human p75^NTR receptor was determined as 1.55 nM.
Consider `O=C(CN1CCN(c2ccc(C(F)(F)F)cn2)C(=O)C1)N1CCc2nc(-c3ccccc3)sc2C1` [compound 11, 4-[2-oxo-2-(2-phenyl-6,7-dihydro-4H-thiazolo[5,4-c]pyridin-5-yl)ethyl]-1-(5-trifluoromethylpyridin-2-yl)piperazin-2-one], for which the half-maximal inhibitory concentration (IC50) at human p75^NTR receptor was 1.9 nM; in data set [1] it was 4.46 nM.
For `C[C@@H]1CN(c2ccc(-c3nnn(C)n3)cn2)C[C@H](C)N1CC(=O)N1CCc2nn(-c3ccccc3)cc2C1` [compound 87, 2-{(2S,6R)-2,6-dimethyl-4-[5-(2-methyl-2H-tetrazol-5-yl)pyridin-2-yl]piperazin-1-yl}-1-(2-phenyl-2,4,6,7-tetrahydropyrazolo[4,3-c]pyridin-5-yl)ethanone], the melting point is 182 to 183 °C.
The same measure, in the same setting: with `CCOC(=O)c1ccc(N2C[C@@H](C)N(CC(=O)N3CCc4nn(-c5ccccc5)cc4C3)[C@@H](C)C2)nc1` (as salt: HCl) [compound 79, 6-{(3S,5R)-3,5-dimethyl-4-[2-oxo-2-(2-phenyl-2,4,6,7-tetrahydropyrazolo[4,3-c]pyridin-5-yl)ethyl]piperazin-1-yl}nicotinic acid ethyl ester] the figure was 235 to 236 °C; with `O=C(CN1CCN(c2ccc(C(F)(F)F)cn2)C(=O)C1)N1CCc2nc(-c3cccnc3)sc2C1` [compound 84, 4-[2-oxo-2-(2-pyridin-3-yl-6,7-dihydro-4H-thiazolo[5,4-c]pyridin-5-yl)ethyl]-1-(5-trifluoromethylpyridin-2-yl)piperazin-2-one], 180 to 183 °C.
`Cc1noc(-c2ccc(N3C[C@@H](C)N(CC(=O)N4CCc5nn(-c6ccccc6)cc5C4)[C@@H](C)C3)nc2)n1` [compound 91, 2-{(2S,6R)-2,6-dimethyl-4-[5-(3-methyl-[1,2,4]oxadiazol-5-yl)-pyridin-2-yl]piperazin-1-yl}-1-(2-phenyl-2,4,6,7-tetrahydropyrazolo[4,3-c]pyridin-5-yl)ethanone] displayed a melting point of 168 to 171 °C.
Still for that read-out and setting: with `O=C(O)c1ccc(N2CC3CCC(C2)N3CC(=O)N2CCc3nc(-c4ccccc4)sc3C2)nc1` the figure was 250 to 251 °C; with `O=C(CN1CC2CCC(C1)N2c1ncc(F)cn1)N1CCc2nn(-c3ccc(C(F)(F)F)cn3)cc2C1`, 208 to 209 °C.
The same measure, in the same setting: with `O=C(CN1CC2CCC(C1)N2c1ccc(-c2ncon2)cn1)N1CCc2nn(-c3ccccc3)cc2C1` the figure was 201 to 202 °C; with `C[C@@H]1CN(c2ccc(Cl)cn2)C[C@H](C)N1CC(=O)N1CCc2nn(-c3ccc(C(F)(F)F)cn3)cc2C1` [compound 112, 2-[(2S,6R)-4-(5-chloropyridin-2-yl)-2,6-dimethylpiperazin-1-yl]-1-[2-(5-trifluoromethylpyridin-2-yl)-2,4,6,7-tetrahydropyrazolo[4,3-c]pyridin-5-yl]ethanone], 165 to 166 °C; with `O=C(CN1CC2CCC(C1)N2c1ncc(F)cn1)N1CCc2c(cnn2-c2ccccc2)C1`, 148 to 150 °C.
For `O=C(OC1CCC1)c1ccc(N2C3CCC2CN(CC(=O)N2CCc4nn(-c5ccccc5)cc4C2)C3)nc1`, the melting point lay within 176 to 177 °C.
On the same count and under the same terms, with `O=C(CN1CC2CCC(C1)N2c1ccc(-c2noc(=O)[nH]2)cn1)N1CCc2nn(-c3ccccc3)cc2C1` the figure was 176 to 179 °C; with `CCn1cc2c(n1)CCN(C(=O)CN1CC3CCC(C1)N3c1ccc(C(F)(F)F)cn1)C2`, 99 to 100 °C.
The same measure, in the same setting: as for `C[C@@H]1CN(c2cncnc2)C[C@H](C)N1CC(=O)N1CCc2nn(-c3ccccc3)cc2C1` (as salt: HCl) [compound 16, 2-((2S,6R)-2,6-dimethyl-4-pyrimidin-5-yl-piperazin-1-yl)-1-(2-phenyl-2,4,6,7-tetrahydropyrazolo[4,3-c]pyridin-5-yl)ethanone], the figure is 166 to 167 °C.
